From US11395492B2, “Antimicrobial and agrochemical compositions” (Myco Sciences Limited, priority 2015, dated 2022)
Where “and” joins values, the source holds several entries; their conditions need not be identical. Equal values may be shown once. Read-outs that look alike come from different tables or passages of the source.

Columns and labels:
[1] = pH of diluted compositions and components; format: physicochemical
Rhizoctonia solani [2] = assay: Inhibition of fungal growth assay (radial growth on PDA); details: for IC50 (% of stock solution) on growth of R. solani: potato dextrose agar, 24 hour culture at 22° C.
Description: Inhibition of fungal growth assay. The Rhizoctonia solani (R. solani) strain was isolated from sclerotia on the skin of a potato and was maintained in culture on potato dextrose agar (PDA) at room temperature (22° C.). To assess the effects of the compositions on fungal growth, 10 microliters of the test compositions diluted in sterile distilled water was placed in the wells of a 12-well tissue culture plate and 1 milliliter of PDA was added by pipette to each well. The plate was agitated to distribute the test composition evenly throughout the agar (distilled water alone was used as control) and then the agar was allowed to set. Plugs of agar containing fungal hyphae (3×3 millimeters) from an established fungal culture were cut out using a scalpel and inserted into holes cut into the centre of the agar in each well of the 12-well plate, which was then cultured at room temperature. To assess the effects of compositions on radial fungal growth, the diameter of the fungal hyphae was measured twice at a 90° angle using a ruler and the average diameter in millimeters was calculated. Concentrations of compositions required to inhibit the radial growth of R. solani by 50% (IC50) were determined graphically.

spores of B. cinerea = assay: Sporicidal assay (1) with sodium nitrite, B. cinerea; format: cell-based, Botrytis cinerea
spores of F. oxysporum = assay: Sporicidal assay (1) with sodium nitrite, F. oxysporum; format: cell-based, Fusarium oxysporum f. sp. cubense
sclerotia of R. solani = assay: Scleroticidal assay with compositions and sodium nitrite; format: cell-based, Rhizoctonia solani
Description: Scleroticidal assay. Plugs of agar containing white immature sclerotia (3×3 millimeters) were cut from a 6 to 8 day culture of R. solani, whilst mature melanized (black) sclerotia (around 10×3 millimeters) were excised from 13-day old R. solani cultures and cut into 2×3 millimeter pieces with a scalpel. The sclerotia samples were then placed in the wells of a 96-well plate containing 75 microliters of various concentrations of sodium nitrite or sterile distilled water (DW) as control. TO start the reaction, 75 microliters of CuZn #31 (diluted in DW) was added to the wells. The plate was carefully shaken and incubated at room temperature for 10 minutes when the liquid was carefully removed and 150 microliters of CM-1 medium was added for 5 minutes to stop the reaction.

Magnaporthe oryzae = format: cell-based; details: for M. oryzae fungal growth (mm): 30 min exposure, 4 days culture
Rhizoctonia solani [3] = tested on: Rhizoctonia solani
Description: To assess the effects of composition on fungal growth, 10 microliters of the test compositions diluted in sterile distilled water were placed in the wells of a 12-well tissue culture plate and 1 milliliter of PDA was added by pipette to each well. The plate was agitated to distribute the test composition evenly throughout the agar (distilled water alone was used as control) and then the agar was allowed to set. Plugs of agar containing fungal hyphae (3×3 millimeters) from an established fungal culture were cut out using a scalpel and inserted into holes cut into the centre of the agar in each well of the 12-well plate, which was then cultured at room temperature (22° C.). To assess the effects of compositions on radial fungal growth, the diameter the fungal hyphae was measured twice at a 90° angle using a ruler and the average diameter in millimeters was calculated. If no fungal growth could be detected by eye, the cultures were observed by phase microscopy (40×) to confirm that there was no growth (NG) as judged by visual examination.
To assess the effects of compounds and compositions on sclerotia formation, the R. solani cultures were examined daily and radial fungal growth was measured until the cultures were confluent after which time the development of white (immature) sclerotia and mature (black pigmented) sclerotia was noted and the number of mature sclerotia was counted on day 10 of culture.

[4] = NaNO2 1 mM + DW (sodium nitrite alone)
[5] = NaNO2 3 mM + DW (sodium nitrite alone)
[6] = NaNO2 10 mM + DW (sodium nitrite alone)
[7] = NaNO2 30 mM + DW (sodium nitrite alone)
[8] = NaNO2 0 mM, test item 0.3%, 30 min
[9] = NaNO2 1 mM, test item 0.1%, 30 min
[10] = NaNO2 1 mM, test item 0.3%, 30 min
[11] = NaNO2 3 mM, test item 0.1%, 30 min
[12] = NaNO2 3 mM, test item 0.3%, 30 min
[13] = NaNO2 10 mM, test item 0.1%, 30 min
[14] = NaNO2 10 mM, test item 0.3%, 30 min
[15] = NaNO2 30 mM, test item 0.1%, 30 min
[16] = NaNO2 30 mM, test item 0.3%, 30 min
[17] = FIG. 3, 2 to 3 replicate experiments

Structure (SMILES): [Cl-].[Cu+2].[Cu+2].[OH-].[OH-].[OH-] [CuOCl-TP, copper oxychloride]
- pH of a 1% suspension in water ([1]; 1% suspension in water): 6.2
- IC50 (% of stock solution) on growth of R. solani (Rhizoctonia solani [2]): 1.8 % of stock solution

Structure (SMILES): O=NO [NaNO2, sodium nitrite]
- Fungal growth score, spores of B. cinerea (spores of B. cinerea; [4]): 2
- Fungal growth score, spores of B. cinerea (spores of B. cinerea; [5]): 2
- Fungal growth score, spores of B. cinerea (spores of B. cinerea; [6]): 2
- Fungal growth score, spores of B. cinerea (spores of B. cinerea; [7]): 2
- Fungal growth score, spores of B. cinerea (spores of B. cinerea; NaNO2 100 mM + DW (sodium nitrite alone)): 2
- sporicidal activity to F. oxysporum spores (spores of F. oxysporum; 100 millimolar sodium nitrite alone, data not shown): sporicidal
- Fungal growth score, spores of F. oxysporum (spores of F. oxysporum; [4]): 2
- Fungal growth score, spores of F. oxysporum (spores of F. oxysporum; [5]): 2
- Fungal growth score, spores of F. oxysporum (spores of F. oxysporum; [6]): 2
- Fungal growth score, spores of F. oxysporum (spores of F. oxysporum; [7]): 2
- Mean fungal growth (in mm ± SD, n = 2) of black sclerotia after treatment (sclerotia of R. solani; NaNO2 30 mM + 0 composition (sodium nitrite alone)): 41 ± 2 mm and 43 ± 2 mm
- scleroticidal effect (words, FIG. 2) (sclerotia of R. solani; sodium nitrite alone (0+100), white or black sclerotia): little or no significant scleroticidal effect

Structure (SMILES): OP(O)O [Composition H3PO3, phosphorous acid]
- M. oryzae fungal growth (mm) (Magnaporthe oryzae; NaNO2 0 mM, composition 1%): 21 mm
- M. oryzae fungal growth (mm) (Magnaporthe oryzae; NaNO2 10 mM, composition 0.1%): 20 mm
- percent of control (A, B, M) used to calculate Sf (Magnaporthe oryzae; NaNO2 10 mM, composition 0.3%): 38%
- M. oryzae fungal growth (mm) (Magnaporthe oryzae; NaNO2 10 mM, composition 0.3%): 13 mm
- percent of control (A, B, M) used to calculate Sf (Magnaporthe oryzae; NaNO2 10 mM, composition 1%): 48%
- M. oryzae fungal growth (mm) (Magnaporthe oryzae; NaNO2 10 mM, composition 1%): 11 mm
- fungicidal activity to M. oryzae (Magnaporthe oryzae; absence of sodium nitrite, 1% of stock solution): not fungicidal
- pH of a 1% solution in DW ([1]; 1% in distilled water): 2.12
- pH: 1% in DW + 100 mM NaNO2 ([1]; 1% in distilled water with 100 mM sodium nitrite): 4.22
- Fungal growth score, spores of B. cinerea (spores of B. cinerea; NaNO2 0 mM, test item 0.1%, 30 min): 2
- Fungal growth score, spores of B. cinerea (spores of B. cinerea; [8]): 2
- Fungal growth score, spores of B. cinerea (spores of B. cinerea; NaNO2 0 mM, test item 1%, 30 min): 2
- Fungal growth score, spores of B. cinerea (spores of B. cinerea; [9]): 2
- Fungal growth score, spores of B. cinerea (spores of B. cinerea; [10]): 2
- Fungal growth score, spores of B. cinerea (spores of B. cinerea; NaNO2 1 mM, test item 1%, 30 min): 2
- Fungal growth score, spores of B. cinerea (spores of B. cinerea; [11]): 2
- Fungal growth score, spores of B. cinerea (spores of B. cinerea; [12]): 2
- Fungal growth score, spores of B. cinerea (spores of B. cinerea; NaNO2 3 mM, test item 1%, 30 min): 1
- Fungal growth score, spores of B. cinerea (spores of B. cinerea; [13]): 2
- Fungal growth score, spores of B. cinerea (spores of B. cinerea; [14]): 2
- Fungal growth score, spores of B. cinerea (spores of B. cinerea; NaNO2 10 mM, test item 1%, 30 min): 0
- Fungal growth score, spores of B. cinerea (spores of B. cinerea; [15]): 2
- Fungal growth score, spores of B. cinerea (spores of B. cinerea; [16]): 2
- Fungal growth score, spores of B. cinerea (spores of B. cinerea; NaNO2 30 mM, test item 1%, 30 min): 0
- Fungal growth score, spores of B. cinerea (spores of B. cinerea; NaNO2 100 mM, test item 0.1%, 30 min): 2
- Fungal growth score, spores of B. cinerea (spores of B. cinerea; NaNO2 100 mM, test item 0.3%, 30 min): 1
- Fungal growth score, spores of B. cinerea (spores of B. cinerea; NaNO2 100 mM, test item 1%, 30 min): 0
- Fungal growth score, spores of F. oxysporum (spores of F. oxysporum; [8]): 2
- Fungal growth score, spores of F. oxysporum (spores of F. oxysporum; NaNO2 1 mM, test item 0.03%, 30 min): 2
- Fungal growth score, spores of F. oxysporum (spores of F. oxysporum; [9]): 2
- Fungal growth score, spores of F. oxysporum (spores of F. oxysporum; [10]): 2
- Fungal growth score, spores of F. oxysporum (spores of F. oxysporum; NaNO2 3 mM, test item 0.03%, 30 min): 2
- Fungal growth score, spores of F. oxysporum (spores of F. oxysporum; [11]): 2
- Fungal growth score, spores of F. oxysporum (spores of F. oxysporum; [12]): 1
- Fungal growth score, spores of F. oxysporum (spores of F. oxysporum; NaNO2 10 mM, test item 0.03%, 30 min): 2
- Fungal growth score, spores of F. oxysporum (spores of F. oxysporum; [13]): 2
- Fungal growth score, spores of F. oxysporum (spores of F. oxysporum; [14]): 0
- Fungal growth score, spores of F. oxysporum (spores of F. oxysporum; NaNO2 30 mM, test item 0.03%, 30 min): 2
- Fungal growth score, spores of F. oxysporum (spores of F. oxysporum; [15]): 1
- Fungal growth score, spores of F. oxysporum (spores of F. oxysporum; [16]): 0
- IC50 values with R. solani (fungal growth) (Rhizoctonia solani [2]): around 250 mg/L
- IC50 (% of stock solution) on growth of R. solani (Rhizoctonia solani [2]): 0.64^+ % of stock solution
- IC50 (% of stock solution) on growth of R. solani (Rhizoctonia solani [2]; listed as phosphorous acid): 0.64 % of stock solution
- Day 1 growth in mm (Rhizoctonia solani [3]; 10 mg/L (Table 9)): 18 mm
- Day black SCL 1st seen (Rhizoctonia solani [3]; 10 mg/L (Table 9)): 5
- Day growth confluent (Rhizoctonia solani [3]; 10 mg/L (Table 9)): 2
- Day white SCL 1st seen (Rhizoctonia solani [3]; 10 mg/L (Table 9)): 3
- No. black SCL on day 10 (Rhizoctonia solani [3]; 10 mg/L (Table 9)): 17
- Day 1 growth in mm (Rhizoctonia solani [3]; 12 mg/L (Table 11)): 20 mm
- Day black SCL 1st seen (Rhizoctonia solani [3]; 12 mg/L (Table 11)): 6
- Day growth confluent (Rhizoctonia solani [3]; 12 mg/L (Table 11)): 2
- Day white SCL 1st seen (Rhizoctonia solani [3]; 12 mg/L (Table 11)): 3
- No. black SCL on day 10 (Rhizoctonia solani [3]; 12 mg/L (Table 11)): >20
- Day 1 growth in mm (Rhizoctonia solani [3]; 12 mg/L, adjusted to equal amounts of PO3 group (Table 10)): 18 mm
- Day black SCL 1st seen (Rhizoctonia solani [3]; 12 mg/L, equal PO3 (Table 10)): 6
- Day growth confluent (Rhizoctonia solani [3]; 12 mg/L, equal PO3 (Table 10)): 2
- Day white SCL 1st seen (Rhizoctonia solani [3]; 12 mg/L, equal PO3 (Table 10)): 3
- No. black SCL on day 10 (Rhizoctonia solani [3]; 12 mg/L, equal PO3 (Table 10)): >20
- Day 1 growth in mm (Rhizoctonia solani [3]; 20 mg/L (Table 9)): 18 mm
- Day growth confluent (Rhizoctonia solani [3]; 20 mg/L (Table 9)): 2
- Day white SCL 1st seen (Rhizoctonia solani [3]; 20 mg/L (Table 9)): 4
- No. black SCL on day 10 (Rhizoctonia solani [3]; 20 mg/L (Table 9)): 0
- Day 1 growth in mm (Rhizoctonia solani [3]; 40 mg/L (Table 9)): 16 mm
- Day growth confluent (Rhizoctonia solani [3]; 40 mg/L (Table 9)): 2
- No. black SCL on day 10 (Rhizoctonia solani [3]; 40 mg/L (Table 9)): 0
- Day 1 growth in mm (Rhizoctonia solani [3]; 40 mg/L (Table 11)): 19 mm
- Day growth confluent (Rhizoctonia solani [3]; 40 mg/L (Table 11)): 2
- No. black SCL on day 10 (Rhizoctonia solani [3]; 40 mg/L (Table 11)): 0
- Day 1 growth in mm (Rhizoctonia solani [3]; 40 mg/L, adjusted to equal amounts of PO3 group (Table 10)): 16 mm
- Day growth confluent (Rhizoctonia solani [3]; 40 mg/L, equal PO3 (Table 10)): 2
- No. black SCL on day 10 (Rhizoctonia solani [3]; 40 mg/L, equal PO3 (Table 10)): 0
- Day 1 growth in mm (Rhizoctonia solani [3]; 80 mg/L (Table 9)): 14 mm
- Day growth confluent (Rhizoctonia solani [3]; 80 mg/L (Table 9)): 3
- No. black SCL on day 10 (Rhizoctonia solani [3]; 80 mg/L (Table 9)): 0
- Day 1 growth in mm (Rhizoctonia solani [3]; 120 mg/L (Table 11)): 14 mm
- Day growth confluent (Rhizoctonia solani [3]; 120 mg/L (Table 11)): 3
- No. black SCL on day 10 (Rhizoctonia solani [3]; 120 mg/L (Table 11)): 0
- Day 1 growth in mm (Rhizoctonia solani [3]; 120 mg/L, adjusted to equal amounts of PO3 group (Table 10)): 10 mm
- Day growth confluent (Rhizoctonia solani [3]; 120 mg/L, equal PO3 (Table 10)): 4
- No. black SCL on day 10 (Rhizoctonia solani [3]; 120 mg/L, equal PO3 (Table 10)): 0
- Day 1 growth in mm (Rhizoctonia solani [3]; 160 mg/L (Table 9)): 11 mm
- Day growth confluent (Rhizoctonia solani [3]; 160 mg/L (Table 9)): 3
- No. black SCL on day 10 (Rhizoctonia solani [3]; 160 mg/L (Table 9)): 0
- Day 1 growth in mm (Rhizoctonia solani [3]; 400 mg/L (Table 11)): 6 mm
- No. black SCL on day 10 (Rhizoctonia solani [3]; 400 mg/L (Table 11)): 0
- Day 1 growth in mm (Rhizoctonia solani [3]; 400 mg/L, adjusted to equal amounts of PO3 group (Table 10)): 5 mm
- No. black SCL on day 10 (Rhizoctonia solani [3]; 400 mg/L, equal PO3 (Table 10)): 0
- times more active than AMPA at inhibiting black sclerotia formation (Rhizoctonia solani [3]; [17]): around 30 times
- times more active than glyphosate at inhibiting black sclerotia formation (Rhizoctonia solani [3]; [17]): around 20 times
